Results published in US12252488B2 (Nimbus Saturn, Inc., priority 2021, dated 2025).

Biological target: T1, HPK1 (Homo sapiens, UniProt Q92918)
T1 construct: purchased Invitrogen
Assay: HPK1 biochemical enzyme assay (microfluidic mobility shift assay)
Details: 1000 uM (1 mM) ATP; Caliper mobility shift; 1.5 nM HPK1; 30 min preincubation; read-out: HPK1 1000UMATP caliper IC50
Summary of the method: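 IC50 values, grouped into activity categories, come from 10-point titrations (top final 3 μM) preincubated 30 min with 1.5 nM enzyme and substrate at pH 7.4. ATP (1 mM), substrate (1 μM) and MgCl2 (5 mM) then added; after 60 min at RT, product separated by microfluidic mobility shift.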

T1 sequence (Q92918 whole entry): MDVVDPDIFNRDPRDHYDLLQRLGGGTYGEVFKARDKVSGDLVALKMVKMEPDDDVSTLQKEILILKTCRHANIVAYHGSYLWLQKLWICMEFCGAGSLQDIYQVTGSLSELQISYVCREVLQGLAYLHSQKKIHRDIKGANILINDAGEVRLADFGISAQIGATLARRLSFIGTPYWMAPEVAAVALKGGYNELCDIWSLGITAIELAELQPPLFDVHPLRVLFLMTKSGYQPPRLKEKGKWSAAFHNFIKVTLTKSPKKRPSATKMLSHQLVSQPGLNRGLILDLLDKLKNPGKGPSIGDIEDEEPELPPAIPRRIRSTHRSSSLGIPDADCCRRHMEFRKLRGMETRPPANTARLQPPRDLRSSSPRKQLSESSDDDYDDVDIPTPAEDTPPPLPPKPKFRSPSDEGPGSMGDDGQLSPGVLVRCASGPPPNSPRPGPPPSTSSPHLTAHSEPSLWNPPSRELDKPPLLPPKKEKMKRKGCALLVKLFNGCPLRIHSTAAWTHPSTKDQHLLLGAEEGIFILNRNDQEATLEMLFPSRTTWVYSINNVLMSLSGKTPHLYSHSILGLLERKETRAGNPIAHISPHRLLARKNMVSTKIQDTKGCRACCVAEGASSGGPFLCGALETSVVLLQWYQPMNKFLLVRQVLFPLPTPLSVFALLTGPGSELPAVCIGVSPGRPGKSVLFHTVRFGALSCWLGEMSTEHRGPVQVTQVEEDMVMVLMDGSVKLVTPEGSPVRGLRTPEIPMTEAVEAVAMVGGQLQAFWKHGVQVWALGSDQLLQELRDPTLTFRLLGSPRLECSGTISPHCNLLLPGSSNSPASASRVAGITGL

IC50 | SMILES
≤ 100 nM | CNC(C)(c1ccc(F)c(-c2cc(Nc3ccc(N4CCC(O)CC4)cn3)c3c(=O)[nH]ccc3n2)c1)C(F)(F)F (stereo not shown) [I-263, 2-[2-fluoro-5-[2,2,2-trifluoro-1-methyl-1-(methyl-amino)ethyl]phenyl]-4-[[5-(4-hydroxy-1-piperidyl)-2-pyridyl]amino]-6H-1,6-naphthyridin-5-one]
100 to 1000 nM | O=c1[nH]ccc2nc(C3CCCCC3)cc(Nc3ccc(N4CCC(O)CC4)cn3)c12 [I-19, 2-cyclohexyl-4-[[5-(4-hydroxy-1-piperidyl)-2-pyridyl]amino]-6H-1,6-naphthyridin-5-one]
≤ 100 nM | CN(C)Cc1ccc(-c2cc(Nc3ccc(N4CCC(O)CC4)cn3)c3c(=O)[nH]ccc3n2)c(F)c1 [I-74, 2-[4-[(dimethyl-amino)methyl]-2-fluoro-phenyl]-4-[[5-(4-hydroxy-1-piperidyl)-2-pyridyl]amino]-6H-1,6-naphthyridin-5-one]
≤ 100 nM | COc1cc(-c2cc(Nc3ccc(N4CCC(O)CC4)cn3)c3c(=O)[nH]ccc3n2)c(F)cc1C(=O)N1CC2C(C1)C2(F)F (stereo not shown) [I-251, 2-[4-(6,6-difluoro-3-azabicyclo [3.1.0]hexane-3-carbonyl)-2-fluoro-5-methoxy-phenyl]-4-[[5-(4-hydroxy-1-piperidyl)-2-pyridyl]amino]-6H-1,6-naphthyridin-5-one]
≤ 100 nM | CCn1ccc(Nc2cc(-c3cc(OC)c(C(=O)N4CCCCC4)cc3F)nc3cc[nH]c(=O)c23)nc1=O [I-228, 4-((1-ethyl-2-oxo-1,2-dihydropyrimidin-4-yl)amino)-2-(2-fluoro-5-methoxy-4-(piperidine-1-carbonyl)phenyl)-1,6-naphthyridin-5(6H)-one]
≤ 100 nM | CC(C)c1ccc(Cl)c(-c2cc(Nc3ccc(N4CCC(O)CC4)cn3)c3c(=O)[nH]ccc3n2)c1 [I-101, 2-(2-chloro-5-isopropyl-phenyl)-4-[[5-(4-hydroxy-1-piperidyl)-2-pyridyl]amino]-6H-1,6-naphthyridin-5-one]
100 to 1000 nM | CC(C)Cc1cc(Nc2ccc(N3CCC(O)CC3)cn2)c2c(=O)[nH]ccc2n1 [I-28, 4-[[5-(4-hydroxy-1-piperidyl)-2-pyridyl]amino]-2-isobutyl-6H-1,6-naphthyridin-5-one]
100 to 1000 nM | O=C(Nc1ccc(-c2cc(Nc3ccc(N4C[C@H]5CC[C@@H](C4)O5)cn3)c3c(=O)[nH]ccc3n2)c(F)c1)C1CCCCC1 [I-173, N-[3-fluoro-4-[4-[[5-[(1R,5S)-8-oxa-3-azabicyclo [3.2.1]octan-3-yl]-2-pyridyl]amino]-5-oxo-6H-1,6-naphthyridin-2-yl]phenyl]-cyclohexane-carboxamide]
≤ 100 nM | O=C(c1ccc(-c2cc(Nc3ccc(N4CCC(O)CC4)cn3)c3c(=O)[nH]ccc3n2)c(F)c1)N1CCC(O)CC1 [I-140, 2-[2-fluoro-4-(4-hydroxy-piperidine-1-carbonyl)phenyl]-4-[[5-(4-hydroxy-1-piperidyl)-2-pyridyl]amino]-6H-1,6-naphthyridin-5-one]
≤ 100 nM | Cc1n[nH]c2cc(F)c(-c3cc(Nc4ccc(N5CCNCC5)cn4)c4c(=O)[nH]ccc4n3)cc12 [I-168, 2-(6-fluoro-3-methyl-1H-indazol-5-yl)-4-[[5-piperazin-1-yl-2-pyridyl)amino]-6H-1,6-naphthyridin-5-one]
≤ 100 nM | CN(C(=O)C1(C)COC1)c1ccc(-c2cc(Nc3ccc(N4CCC(O)CC4)cn3)c3c(=O)[nH]ccc3n2)c(F)c1 [I-210, N-[3-fluoro-4-[4-[[5-(4-hydroxy-1-piperidyl)-2-pyridyl]amino]-5-oxo-6H-1,6-naphthyridin-2-yl]phenyl]-N,3-dimethyl-oxetane-3-carboxamide]
≤ 100 nM | CCC1(C(=O)N(C)c2ccc(-c3cc(Nc4ccc(N5CCNCC5)cn4)c4c(=O)[nH]ccc4n3)c(F)c2)CCC1 [I-247, 1-ethyl-N-[3-fluoro-4-[5-oxo-4-[(5-piperazin-1-yl-2-pyridyl)amino]-6H-1,6-naphthyridin-2-yl]phenyl]-N-methyl-cyclobutane-carboxamide]
≤ 100 nM | O=C(c1ccc(-c2cc(Nc3ccc(N4CCNCC4)cn3)c3c(=O)[nH]ccc3n2)c(F)c1)N1CC2CCC1CC2 [I-264, 2-[4-(3-azabicyclo [2.2.2]octane-3-carbonyl)-2-fluoro-phenyl]-4-[(5-piperazin-1-yl-2-pyridyl)amino]-6H-1,6-naphthyridin-5-one]
100 to 1000 nM | O=C(c1ccc(F)c(-c2cc(Nc3ccc(N4CCC(O)CC4)cn3)c3c(=O)[nH]ccc3n2)c1)N1CCOCC1 [I-80, 2-[2-fluoro-5-(morpholine-4-carbonyl)phenyl]-4-[[5-(4-hydroxy-1-piperidyl)-2-pyridyl]amino]-6H-1,6-naphthyridin-5-one]
≤ 100 nM | CCNC(=O)c1ccc(Nc2cc(-c3c(F)cccc3F)nc3nc[nH]c(=O)c23)cc1 [I-14, 4-[[7-(2,6-difluoro-phenyl)-4-oxo-3H-pyrido[2,3-d]pyrimidin-5-yl]amino]-N-ethyl-benzamide]
100 to 1000 nM | N#CC1CCN(C(=O)c2ccc(-c3cc(Nc4ccc(N5CCC(O)CC5)cn4)c4c(=O)[nH]ccc4n3)c(F)c2)CC1 [I-132, 1-[3-fluoro-4-[4-[[5-(4-hydroxy-1-piperidyl)-2-pyridyl]amino]-5-oxo-6H-1,6-naphthyridin-2-yl]benzoyl] piperidine-4-carbonitrile]

IC50 | SMILES
100 to 1000 nM | CN1CCN(C(=O)c2ccc(-c3cc(Nc4ccc(N5CCC(O)CC5)cn4)c4c(=O)[nH]ccc4n3)c(F)c2)CC1 [I-131, 2-[2-fluoro-4-(4-methyl-piperazine-1-carbonyl)phenyl]-4-[[5-(4-hydroxy-1-piperidyl)-2-pyridyl]amino]-6H-1,6-naphthyridin-5-one]
100 to 1000 nM | CNC1(c2ccc(F)c(-c3cc(Nc4ccc(N5CCC(O)CC5)cn4)c4c(=O)[nH]ccc4n3)c2)CC1 [I-221, 2-[2-fluoro-5-[1-(methyl-amino)cyclopropyl]phenyl]-4-[[5-(4-hydroxy-1-piperidyl)-2-pyridyl]amino]-6H-1,6-naphthyridin-5-one]
> 1000 nM | CS(=O)(=O)c1ccc(Nc2cc(-c3c(F)cccc3F)nc3cc[nH]c(=O)c23)nc1 [I-18, 2-(2,6-difluoro-phenyl)-4-[(5-methyl-sulfonyl-2-pyridyl)amino]-6H-1,6-naphthyridin-5-one]
> 1000 nM | COc1cc(-c2cc(Nc3ccc(N4CCNCC4)cn3)c3c(=O)[nH]ccc3n2)c(F)cc1C(=O)N1CCCCC1 [I-157]
> 1000 nM | COc1cc(-c2cc(Nc3ccc(N4CC(F)(F)C4)cn3)c3c(=O)[nH]ccc3n2)c(F)cc1C(=O)N1CCCCC1 [I-174, 4-[[5-(3,3-difluoro-azetidin-1-yl)-2-pyridyl]amino]-2-[2-fluoro-5-methoxy-4-(piperidine-1-carbonyl)phenyl]-6H-1,6-naphthyridin-5-one]
> 1000 nM | CC1(C(=O)Nc2ccc(-c3cc(Nc4ccc(N5CCC(O)CC5)cn4)c4c(=O)[nH]ccc4n3)c(F)c2)CCC1 [I-211, N-[3-fluoro-4-[4-[[5-(4-hydroxy-1-piperidyl)-2-pyridyl]amino]-5-oxo-6H-1,6-naphthyridin-2-yl]phenyl]-1-methyl-cyclobutane-carboxamide]
100 to 1000 nM | CC(C)(C#N)c1ccc(-c2cc(Nc3ccc(N4CCC(O)CC4)cn3)c3c(=O)[nH]ccc3n2)c(F)c1 [I-149, 2-[3-fluoro-4-[4-[[5-(4-hydroxy-1-piperidyl)-2-pyridyl]amino]-5-oxo-6H-1,6-naphthyridin-2-yl]phenyl]-2-methyl-propane-nitrile]
100 to 1000 nM | CC(O)c1cc(Nc2ccc(N3CCC(O)CC3)cn2)c2c(=O)[nH]ccc2n1 (stereo not shown) [I-37, 2-(1-hydroxyethyl)-4-[[5-(4-hydroxy-1-piperidyl)-2-pyridyl]amino]-6H-1,6-naphthyridin-5-one]
100 to 1000 nM | COc1cc(-c2cc(Nc3ccc(N4CCC(F)(F)CC4)cn3)c3c(=O)[nH]ccc3n2)c(F)cc1C(=O)N1CCCCC1 [I-169, 4-[[5-(4,4-difluoro-1-piperidyl)-2-pyridyl]amino]-2-[2-fluoro-5-methoxy-4-(piperidine-1-carbonyl)phenyl]-6H-1,6-naphthyridin-5-one]
100 to 1000 nM | COc1cc(-c2cc(Nc3ccc(N4CCNCC4)cn3)c3c(=O)[nH]ccc3n2)c(F)cc1C(=O)N1CCC1 [I-175, 2-[4-(azetidine-1-carbonyl)-2-fluoro-5-methoxy-phenyl]-4-[(5-piperazin-1-yl-2-pyridyl)amino]-6H-1,6-naphthyridin-5-one]
≤ 100 nM | CC(C)(O)c1cc(Nc2ccc(N3CCC(O)CC3)cn2)c2c(=O)[nH]ccc2n1 [I-38, 2-(1-hydroxy-1-methyl-ethyl)-4-[[5-(4-hydroxy-1-piperidyl)-2-pyridyl]amino]-6H-1,6-naphthyridin-5-one]
≤ 100 nM | Cc1cc(F)c(-c2cc(Nc3ccc(N4CCC(O)CC4)cn3)c3c(=O)[nH]ccc3n2)cc1C(=O)N1CCCCC1 [I-167, 2-[2-fluoro-4-methyl-5-(piperidine-1-carbonyl)phenyl]-4-[[5-(4-hydroxy-1-piperidyl)-2-pyridyl]amino]-6H-1,6-naphthyridin-5-one]
100 to 1000 nM | Cc1nc2cc(-c3cc(Nc4ccc(N5CCNCC5)cn4)c4c(=O)[nH]ccc4n3)c(F)cc2o1 [I-178, 2-(6-fluoro-2-methyl-1,3-benzoxazol-5-yl)-4-[(5-piperazin-1-yl-2-pyridyl)amino]-6H-1,6-naphthyridin-5-one]
100 to 1000 nM | CCNC(=O)C(C)(C)c1ccc(Nc2cc(-c3cc(C(C)C)ccc3F)nc3cc[nH]c(=O)c23)nc1 [I-128, N-ethyl-2-[6-[[2-(2-fluoro-5-isopropyl-phenyl)-5-oxo-6H-1,6-naphthyridin-4-yl]amino]-3-pyridyl]-2-methyl-propanamide]
100 to 1000 nM | CN(C(=O)C1(C)CC1)c1ccc(-c2cc(Nc3ccc(N4CCC(O)CC4)cn3)c3c(=O)[nH]ccc3n2)c(F)c1 [I-214, N-[3-fluoro-4-[4-[[5-(4-hydroxy-1-piperidyl)-2-pyridyl]amino]-5-oxo-6H-1,6-naphthyridin-2-yl]phenyl]-N,1-dimethyl-cyclopropane-carboxamide]
